Measured values reported in patent US11566057B2, “Long-acting co-agonists of the glucagon and GLP-1 receptors” (Merck Sharp & Dohme Corp., priority 2017, dated 2023).
Numbered stars: 1 amine (or outer) side, 2 acyl side, 3 side chain; on linkers, the order of the positions; unused ones are H or OH. Square brackets hold non-standard residues; d marks the D form. Side chains are listed from the residue outwards. Peptide text beside a SMILES is read from it. * marks the point of attachment. C20 diacid = O=C(O)CCCCCCCCCCCCCCCCCCC(=O)*; Phe(4-CH2NH2) = NCc1ccc(C[C@H](N)C(=O)O)cc1; C18 diacid = O=C(O)CCCCCCCCCCCCCCCCC(=O)*; αMeW = C[C@](N)(Cc1c[nH]c2ccccc12)C(=O)O; C16 diacid = O=C(O)CCCCCCCCCCCCCCC(=O)*; γGlu = O=C(O)[C@H](CCC(=O)[*:2])N[*:1]; Met(O2) = CS(=O)(=O)CC[C@H](N)C(=O)O; AEEA = NCCOCCOCC(=O)O; Aib = CC(C)(N)C(=O)O

Biological target: T1, human GCGR (Homo sapiens, UniProt P47871)
T1 construct: expressed in transfected cells; growth medium holds Blasticidin and Hygromycin
T1 sequence (P47871 26-477): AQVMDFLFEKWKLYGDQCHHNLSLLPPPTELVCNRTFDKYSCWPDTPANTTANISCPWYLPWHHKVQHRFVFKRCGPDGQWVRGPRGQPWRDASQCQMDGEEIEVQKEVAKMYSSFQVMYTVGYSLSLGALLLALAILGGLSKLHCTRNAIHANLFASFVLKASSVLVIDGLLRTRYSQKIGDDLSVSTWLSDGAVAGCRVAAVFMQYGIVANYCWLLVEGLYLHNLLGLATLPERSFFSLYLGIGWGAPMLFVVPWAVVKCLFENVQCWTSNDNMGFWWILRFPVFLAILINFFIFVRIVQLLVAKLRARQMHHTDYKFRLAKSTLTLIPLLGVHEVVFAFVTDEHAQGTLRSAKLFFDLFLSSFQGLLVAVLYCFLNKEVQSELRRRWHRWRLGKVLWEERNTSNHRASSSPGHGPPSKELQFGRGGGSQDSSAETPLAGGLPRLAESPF
Assay: cAMP activity assay at the Glucagon receptor (GCGR)
Assay type: cell-based
Conditions: ratio of GCGR EC50 to GLP1R EC50
Description: Activity of the peptides at the Glucagon receptor (GCGR) and GLP-1 receptor (GLP1R) was measured in a cAMP activity assay.
GCG/GLP-1 receptor co-agonist peptides were dissolved in 100% DMSO (dimethyl sulfoxide) and serially diluted to generate 10 point titrations. The peptide solutions were then transferred into 384-well assay plates (150 nL/well). Assay ready frozen cells expressing human GLP1R or human GCGR were suspended in growth media consisting of DMEM medium (GIBCO®), 10% FBS (GIBCO®), 1×NEAA(GIBCO®), 1×P/S (GIBCO®), 10 ug/mL Blasticidin (GIBCO®) and 200 μg/mL Hygromycin (GIBCO®). […] The cell suspensions (15 μL) were then added to the assay plates containing the peptide solutions (30,000 cells/well for human GCGR; 10,000 cells/well for human GLP1R). The cells were incubated for 1 hour at room temperature in the dark. Production of cAMP was determined using HitHunter™ cAMPXS kits (DiscoverX) following manufacturer protocol. The plates were incubated for overnight at room temperature in the dark. Luminescence was measured using an EnVision Multilabel plate reader (Perkin Elmer). Native GLP-1 and Glucagon (Bachem) are used as control peptides. EC50 values were calculated using uses a 4 parameter logistic fit based on the Levenberg-Marquardt algorithm.

| hGCGR/hGLP1R (hTone) | Compound |
| --- | --- |
| 1.8 | CC(C)C[C@H](NC(=O)[C@H](Cc1ccc(O)cc1)NC(=O)[C@H](CCCCN)NC(=O)[C@H](CO)NC(=O)[C@H](Cc1ccc(O)cc1)NC(=O)[C@H](CC(=O)O)NC(=O)[C@H](CO)NC(=O)[C@@H](NC(=O)[C@H](Cc1ccccc1)NC(=O)[C@@H](NC(=O)CNC(=O)[C@H](CCC(N)=O)NC(=O)C(C)(C)NC(=O)[C@@H](N)Cc1c[nH]cn1)[C@@H](C)O)[C@@H](C)O)C(=O)N[C@@H](CC(=O)O)C(=O)N[C@@H](C)C(=O)N[C@@H](CCCNC(=N)N)C(=O)N[C@@H](C)C(=O)N[C@@H](C)C(=O)N[C@@H](CCC(N)=O)C(=O)N[C@@H](Cc1ccc(CNC(=O)COCCOCCNC(=O)COCCOCCNC(=O)CC[C@H](NC(=O)CCCCCCCCCCCCCCCCC(=O)O)C(=O)O)cc1)C(=O)N[C@@H](Cc1ccccc1)C(=O)N[C@H](C(=O)N[C@@H](CCC(N)=O)C(=O)N[C@@H](Cc1c[nH]c2ccccc12)C(=O)N[C@@H](CC(C)C)C(=O)N[C@@H](CC(C)C)C(=O)N[C@@H](CC(=O)O)C(=O)N[C@H](C(N)=O)[C@@H](C)O)C(C)C [TP443] (H-H[Aib]QGTFTSDYSKYLDARAAQ[Phe(4-CH2NH2)]([AEEA-AEEA-γGlu-C18 diacid])FVQWLLDT-NH2) |
| 2.0 | CC(C)C[C@H](NC(=O)[C@H](Cc1ccc(O)cc1)NC(=O)[C@H](CCCCN)NC(=O)[C@H](CO)NC(=O)[C@H](Cc1ccc(O)cc1)NC(=O)[C@H](CC(=O)O)NC(=O)[C@H](CO)NC(=O)[C@@H](NC(=O)[C@H](Cc1ccccc1)NC(=O)[C@@H](NC(=O)CNC(=O)[C@H](CCC(N)=O)NC(=O)C(C)(C)NC(=O)[C@@H](N)Cc1c[nH]cn1)[C@@H](C)O)[C@@H](C)O)C(=O)N[C@@H](CC(=O)O)C(=O)N[C@@H](C)C(=O)N[C@@H](CCCNC(=N)N)C(=O)N[C@@H](C)C(=O)N[C@@H](C)C(=O)N[C@@H](CCC(N)=O)C(=O)N[C@@H](Cc1ccc(CNC(=O)COCCOCCNC(=O)COCCOCCNC(=O)CC[C@H](NC(=O)CCCCCCCCCCCCCCCCCCC(=O)O)C(=O)O)cc1)C(=O)N[C@@H](Cc1ccccc1)C(=O)N[C@H](C(=O)N[C@@H](CCC(N)=O)C(=O)N[C@@H](Cc1c[nH]c2ccccc12)C(=O)N[C@@H](CC(C)C)C(=O)N[C@@H](CC(C)C)C(=O)N[C@@H](CC(=O)O)C(=O)N[C@H](C(N)=O)[C@@H](C)O)C(C)C [TP585] (H-H[Aib]QGTFTSDYSKYLDARAAQ[Phe(4-CH2NH2)]([AEEA-AEEA-γGlu-C20 diacid])FVQWLLDT-NH2; N-terminus assumed) |
| 3.0 | CC(C)C[C@H](NC(=O)[C@H](Cc1ccc(O)cc1)NC(=O)[C@H](CCCCN)NC(=O)[C@H](CO)NC(=O)[C@H](Cc1ccc(O)cc1)NC(=O)[C@H](CC(=O)O)NC(=O)[C@H](CO)NC(=O)[C@@H](NC(=O)[C@H](Cc1ccccc1)NC(=O)[C@@H](NC(=O)CNC(=O)[C@H](CCC(N)=O)NC(=O)C(C)(C)NC(=O)[C@@H](N)Cc1c[nH]cn1)[C@@H](C)O)[C@@H](C)O)C(=O)N[C@@H](CC(=O)O)C(=O)N[C@@H](C)C(=O)N[C@@H](CCCNC(=N)N)C(=O)N[C@@H](C)C(=O)N[C@@H](C)C(=O)N[C@@H](CCCCNC(=O)COCCOCCNC(=O)COCCOCCNC(=O)CC[C@H](NC(=O)CCCCCCCCCCCCCCC(=O)O)C(=O)O)C(=O)N[C@@H](CC(=O)O)C(=O)N[C@@H](Cc1ccccc1)C(=O)N[C@H](C(=O)N[C@@H](CCC(N)=O)C(=O)N[C@@](C)(Cc1c[nH]c2ccccc12)C(=O)N[C@@H](CC(C)C)C(=O)N[C@@H](CCS(C)(=O)=O)C(=O)N[C@@H](CC(=O)O)C(=O)N[C@H](C(N)=O)[C@@H](C)O)C(C)C [TP630] (H-H[Aib]QGTFTSDYSKYLDARAAK([AEEA-AEEA-γGlu-C16 diacid])DFVQ[αMeW]L[Met(O2)]DT-NH2; N-terminus assumed) |
| 0.64 | HsQGTFTSDNle(1,2,3-triazole-4-γE-C16)SKYLDARAAQDFVQWLLDT-NH2 (HXQGTFTSDXSKYLDARAAQDFVQWLLDT; D-Ser, Nle-triazole-γE-C16 lipid; C-terminal amide; peptide TP830; (2)..(2) Xaa is D-Serine; (10)..(10) Xaa is Nle(1,2,3-triazole-4-gammaGlu-C16); (29)..(29) Xaa is C-terminal amide) |
| 1.56 | CCCCCCCCCCCCCCCc1cn(CCCC[C@H](NC(=O)[C@H](CC(=O)O)NC(=O)[C@H](CO)NC(=O)[C@@H](NC(=O)[C@H](Cc2ccccc2)NC(=O)[C@@H](NC(=O)CNC(=O)[C@H](CCC(N)=O)NC(=O)[C@@H](CO)NC(=O)[C@@H](N)Cc2c[nH]cn2)[C@@H](C)O)[C@@H](C)O)C(=O)N[C@@H](CO)C(=O)N[C@@H](CCCCN)C(=O)N[C@@H](Cc2ccc(O)cc2)C(=O)N[C@@H](CC(C)C)C(=O)N[C@@H](CC(=O)O)C(=O)N[C@@H](C)C(=O)N[C@@H](CCCNC(=N)N)C(=O)N[C@@H](C)C(=O)N[C@@H](C)C(=O)N[C@@H](CCC(N)=O)C(=O)N[C@@H](CC(=O)O)C(=O)N[C@@H](Cc2ccccc2)C(=O)N[C@H](C(=O)N[C@@H](CCC(N)=O)C(=O)N[C@@H](Cc2c[nH]c3ccccc23)C(=O)N[C@@H](CC(C)C)C(=O)N[C@@H](CC(C)C)C(=O)N[C@@H](CC(=O)O)C(=O)N[C@H](C(N)=O)[C@@H](C)O)C(C)C)nn1 [TP829] |
| 2.9 | CC(C)C[C@H](NC(=O)[C@H](CC(C)C)NC(=O)[C@H](Cc1c[nH]c2ccccc12)NC(=O)[C@H](CCC(N)=O)NC(=O)[C@@H](NC(=O)[C@H](Cc1ccccc1)NC(=O)[C@H](CC(=O)O)NC(=O)[C@H](CCC(N)=O)NC(=O)[C@H](C)NC(=O)[C@H](C)NC(=O)[C@H](CCCNC(=N)N)NC(=O)C(C)(C)NC(=O)[C@H](CC(=O)O)NC(=O)[C@H](CC(C)C)NC(=O)[C@H](Cc1ccc(O)cc1)NC(=O)[C@H](CCCCN)NC(=O)[C@H](CO)NC(=O)[C@H](Cc1ccc(CNC(=O)COCCOCCNC(=O)COCCOCCNC(=O)CC[C@H](NC(=O)CCCCCCCCCCCCCCCCCCC(=O)O)C(=O)O)cc1)NC(=O)[C@H](CC(=O)O)NC(=O)[C@H](CO)NC(=O)[C@@H](NC(=O)[C@H](Cc1ccccc1)NC(=O)[C@@H](NC(=O)CNC(=O)[C@H](CCC(N)=O)NC(=O)C(C)(C)NC(=O)[C@@H](N)Cc1c[nH]cn1)[C@@H](C)O)[C@@H](C)O)C(C)C)C(=O)N[C@@H](C)C(=O)N[C@H](C(=O)N[C@@H](CCCCNC(=O)CC[C@H](N)C(=O)O)C(N)=O)[C@@H](C)O [TP581] (H-H[Aib]QGTFTSD[Phe(4-CH2NH2)]([AEEA-AEEA-γGlu-C20 diacid])SKYLD[Aib]RAAQDFVQWLLATK(γGlu)-NH2; N-terminus assumed) |
| 1.66 | HsQGTFTSDNle(1,2,3-triazole-4-C4-Lys-C16)SKYLDARAAQDFVQWLLDT-NH2 (HXQGTFTSDXSKYLDARAAQDFVQWLLDT; D-Ser, Nle-triazole-C4-Lys-C16 lipid; C-terminal amide; peptide TP831; (2)..(2) Xaa is D-Serine; (10)..(10) Xaa is Nle(1,2,3-triazole-4-C4-Lys-C16); (29)..(29) Xaa is C-terminal amide) |
